Measured values published in paper PMC10377034, “Syntheses of 25-Adamantyl-25-alkyl-2-methylidene-1α,25-dihydroxyvitamin D3 Derivatives with Structure–Function Studies of Antagonistic and Agonistic Active Vitamin D Analogs” (Biomolecules, 2023).

What was measured:
[1] = system: CYP24A1 expression in MG63 cells; assay: CYP24A1 expression (RT-qPCR) in MG63 cells; settings: MG63 bone cells, 100 nM, 24 h
Experimental: (§1) HEK293 human kidney cells (RIKEN Cell Bank, Tsukuba, Japan) were cultured in Dulbecco’s modified Eagle’s medium (DMEM) (Fujifilm Wako Pure Chemical Corporation, Tokyo, Japan) containing 5% fetal bovine serum (FBS), 100 U/mL penicillin, and 0.1 mg/mL streptomycin (Nacalai Tesque, Kyoto, Japan). SW480 human colon carcinoma cells (American Type Culture Collection, Manassas, VA) and HaCaT immortalized keratinocyte cells (kindly provided by Dr. Tadashi Terui, Department of Dermatology, Nihon University School of Medicine) were cultured in DMEM containing 10% FBS, 100 U/mL penicillin, and 0.1 mg/mL streptomycin. MG63 human osteosarcoma cells (RIKEN Cell Bank) and lung-derived H292 cells (American Type Culture Collection) were cultured in minimum essential medium containing 10% FBS, 100 U/mL penicillin, and 0.1 mg/mL streptomycin. […] All cells were cultured at 37 °C in a humidified atmosphere containing 5% CO2.
(§2) For gene expression analysis, 1 × 10^4 cells per well were plated in a 24-well plate. After 24 h, the cells were treated with an ethanol control or 100 nM of each test compound for 24 h. […] Real-time PCR was performed on the ABI PRISM 7000 sequence detection system (Thermo Fisher Scientific, Waltham, MA, USA) using Power SYBR Green PCR master mix (Thermo Fisher Scientific).

[2] = system: CYP24A1 expression in HEK293 cells; assay: CYP24A1 expression (RT-qPCR) in HEK293 cells; settings: HEK293 kidney cells, 100 nM, 24 h
Experimental: as §1, §2

[3] = target: T1, VDR with SRC-1 (Homo sapiens, UniProt P11473); assay: Mammalian two-hybrid assay, VDR binding to SRC-1
T1 sequence (P11473 1-427): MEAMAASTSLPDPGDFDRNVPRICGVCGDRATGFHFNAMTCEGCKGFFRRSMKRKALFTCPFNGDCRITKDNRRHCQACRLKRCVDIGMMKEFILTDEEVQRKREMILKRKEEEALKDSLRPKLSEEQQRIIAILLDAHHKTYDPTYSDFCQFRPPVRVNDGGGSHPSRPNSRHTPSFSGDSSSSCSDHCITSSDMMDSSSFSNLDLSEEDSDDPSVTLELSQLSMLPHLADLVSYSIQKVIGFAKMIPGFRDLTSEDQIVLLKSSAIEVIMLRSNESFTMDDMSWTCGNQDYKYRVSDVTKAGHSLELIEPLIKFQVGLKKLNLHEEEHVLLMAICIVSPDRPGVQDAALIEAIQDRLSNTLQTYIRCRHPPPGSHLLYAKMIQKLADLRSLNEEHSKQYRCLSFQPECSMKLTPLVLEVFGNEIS
T1 sequence (Q15788 595-771 partner limits assumed): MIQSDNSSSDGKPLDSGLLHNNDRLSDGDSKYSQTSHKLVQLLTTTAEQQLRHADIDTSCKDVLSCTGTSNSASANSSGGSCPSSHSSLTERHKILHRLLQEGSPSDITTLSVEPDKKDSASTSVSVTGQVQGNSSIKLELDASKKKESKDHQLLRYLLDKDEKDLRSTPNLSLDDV
Experimental: (§3) We used the expression plasmids pCMX-VDR, pCMX-VP16- VDR, pCMX-GAL4-RXRα, pCMX-GAL4-SRC-1, and pCMX-GAL4- N-CoR, as reported previously [43]. […] We used luciferase reporters: VDR-responsive Sppx3-tk-LUC and GAL4-responsive MH100(UAS) × 4-tk-LUC reporters [43].
(§4) Transfections of 50 ng of TK-Spp × 3-LUC reporter plasmid, 10 ng of pCMX-β-galactosidase, and 15 ng of pCMX-VDR for each well of a 96-well plate were performed in HEK293 cells using the calcium phosphate coprecipitation method, as described previously [43]. The mammalian two-hybrid assay for cofactor interaction with VDR used 50 ng of TK-MH100(UAS) × 3- LUC reporter plasmid, 10 ng of pCMX-β-galactosidase, 15 ng of pCMX-GAL4-RXRα, pCMX-GAL4-SRC1, or pCMX-GAL4-NCoR, and 15 ng of pCMX-VP16-VDR for each well of a 96-well plate. Luciferase and β-galactosidase activities were measured with a luminometer and a microplate reader (Molecular Devices, Sun Jose, CA, USA), respectively. Luciferase values were normalized to the internal β-galactosidase control.
(§5) (B) Effects on the interactions between the VDR and SRC-1. HEK293 cells were co-transfected with CMX-GAL4-SRC-1, CMX-VP16-VDR, and MH100 (UAS) × 4-tk-LUC and were treated with each compound over a range of concentrations. (C) Effects on interactions of the VDR with NCoR-1. HEK293 cells were co-transfected with CMX-GAL4-N-CoR in combination with CMX-VP16-VDR and MH100 (UAS) × 4-tk-LUC and were treated with each compound over a range of concentrations.

[4] = target: T2, VDR with RXRα (Homo sapiens, UniProt P11473); assay: Mammalian two-hybrid assay, interaction of the VDR with RXRα
T2 sequence (P11473 1-427): T1 sequence (P11473 1-427)
T2 sequence (P19793 1-462 partner): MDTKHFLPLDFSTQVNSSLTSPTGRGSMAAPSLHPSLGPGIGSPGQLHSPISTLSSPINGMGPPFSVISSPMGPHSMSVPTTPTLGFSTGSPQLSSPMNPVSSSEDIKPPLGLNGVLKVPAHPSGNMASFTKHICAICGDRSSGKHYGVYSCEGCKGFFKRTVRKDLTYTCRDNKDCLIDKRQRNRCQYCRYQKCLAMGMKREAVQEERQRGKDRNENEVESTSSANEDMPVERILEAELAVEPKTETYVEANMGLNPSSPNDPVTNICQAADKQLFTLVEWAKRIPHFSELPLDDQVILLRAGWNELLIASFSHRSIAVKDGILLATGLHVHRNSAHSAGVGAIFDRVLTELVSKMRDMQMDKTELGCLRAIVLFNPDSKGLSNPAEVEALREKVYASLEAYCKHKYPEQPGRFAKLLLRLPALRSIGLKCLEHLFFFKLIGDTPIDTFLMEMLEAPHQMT
Experimental: as §3, §4, §5

C=C1[C@H](O)CC(=C/C=C2\CCC[C@]3(C)[C@@H]([C@H](C)CC#C[C@](O)(CCCC)C45CC6CC(CC(C6)C4)C5)CC[C@@H]23)C[C@H]1O [ADKM6, (25S)-25-(1-Adamantyl)-1α,25-dihydroxy-2-methylidene-26-propyl-23-yne-19,27-dinorvitamin D3]
CYP24A1 expression relative to natural hormone 1 [1]: 54.2% | CYP24A1 expression relative to natural hormone 1 [2]: 61.4% | EC50 [3]: 2.4 nM | VDR-RXRα interaction EC50 ([4]; HEK293 cells, two-hybrid): second-highest activity | VDR-RXRα interaction efficacy ([4]; compared to natural hormone 1): 114%
